From patent US20190117596A1 (WAYNE STATE UNIVERSITY, priority 2016, published 2019)
“Also recorded” adds a separate entry of the source.

Columns and labels:
IL-6 expression = experiment: TGF-β-induced IL-6 expression in H1793 lung adenocarcinoma cells (qPCR); format: cell-based, human; details: CAY10444 10 μM
Protocol: FIGS. 14A-14E. S1P3 regulates the TGF-β-stimulated IL-6 expression. (14A) H1793 lung adenocarcinoma cells were pre-treated for 30 min with inhibitor of TGF-β receptor I (SB4, SB431542, 10 uM) or Smad3 (SIS3, 2 uM), followed by stimulating with TGF-β (1 ng/ml) for 4 hrs. Levels of IL-6 were analyzed by qPCR. […] The S1P-induced IL-6 expression is diminished when S1PR3 were knocked-down. (14E) HBEC2-KT normal lung epithelial cells were transduced with adenoviral particles carrying S1PR3 (Ad-S1PR3) or β-galactosidase (Ad-Ctrl, 200 m.o.i.) for overnight, followed by stimulating with or without S1P (200 nM, 4 hrs). mRNA levels of IL-6 were measured by qPCR analysis. Data are mean±SD from a representative experiment (n=3). Each experiment was repeated at least one time with similar results. Data are mean+S.D. (n=3). *, p<0.05; NS, non-statistic significance; t-test.
(§1) Real-time PCR Analysis. Total RNA was isolated using TRIzol reagent (Invitrogen) and was reverse-transcribed with an oligo(dT) primer (Promega) by Moloney Murine Leukemia Virus (M-MLV) Reverse Transcriptase (Promega) for first-strand cDNA synthesis. For real-time PCR quantitation, 50 ng of reversely transcribed cDNAs were amplified with the ABI 7500 system (Applied Biosystems) in the presence of TaqMan DNA polymerase. […]

S1PR3 expression [1] = experiment: TGF-β-stimulated S1PR3 up-regulation in HBEC2-KT cells (qPCR); format: cell-based, human; details: 30 min pretreatment, SB-431542 10 μM, SIS3 2 μM, SB-203580 50 nM, BAY11-7085 10 μM, JNK inhibitor II 10 μM, TGF-β 4 h
Protocol: FIGS. 4A-4H. TGF-β/SMAD3 signaling axis up-regulates S1PR3. (4A), HBEC2-KT cells were treated with TGF-β (1 ng/ml) for various times. mRNA levels of S1P receptors were measured by qPCR analysis. Data are mean±S.D. of triplicate determinations. *, p<0.05, Student's t test. (4B), protein levels of S1PR3 in TGF-β (1 ng/ml)-treated HBEC2-KT cells. Lower panel, Western blot intensity was quantitated by National Institutes of Health ImageJ. Data (normalized to actin) are mean±S.D. of triplicate determinations. * and **, p<0.05 and 0.01, respectively, Student's t test. (4C), CHO cells were transduced with adenoviral particles (multiplicity of infection of 200) carrying S1PR1, S1PR2, or S1PR3 vector for 20 h as previously described (8). Extracts were blotted with antibody against S1PR3 (Cayman), S1PR2 (Cayman), or S1PR1 (E49) (8). […] Medium was quantitated for S1P, ceramide (Cer), and sphingomyelin (SPM) by LC-MS/MS (29, 46). […] S1PR3 levels were measured by qPCR, following TGF-β treatment (4 h). […] Activation of p38, JNK, and NFκB was measured by Western blotting with phospho-p38 (P-p38), phospho-JNK (P-p54^JNK and P-p46^JNK), and phospho-IκBα (p-IκBα). […]
Real-time PCR Analysis. […] For real-time PCR quantitation, 50 ng of reversely transcribed cDNAs were amplified with the ABI 7500 system (Applied Biosystems) in the presence of TaqMan DNA polymerase. […]

S1PR3 expression [2] = experiment: S1PR3 up-regulation in K-Ras G12V-expressing HEK293 cells (qPCR); format: cell-based; details: HEK293 pBabe-K-Ras G12V, anti-TGF-β 10 μg/ml, SB-431542 10 μM, SIS3 2 μM, 37° C., 24 h
Protocol: FIGS. 3A-3F. TGF-β/SMAD3 signaling contributes to oncogenic K-Ras mutant-stimulated S1PR3 up-regulation. (3A), P, potential SMAD3 binding sites in S1PR3 promoter. 0, transcription initiation site. (3B-3D), HEK293 cells were stably transfected with pBabe-K-Ras^G12V or pBabe control vector. Levels of total cellular K-Ras (3B), S1PRs (3C), and TGF-β (3D) were measured by qPCR analysis. (3E), HEK293 cells transfected with pBabe-K-Ras^G12V or pBabe control vector were incubated with anti-TGF-β (Cell Signaling, antibody number 3711, 10 μg/ml) or irrelevant normal rabbit IgG (10 μg/ml) at 37° C. for 24 h. Levels of S1PR3 were quantitated by qPCR. (3F), HEK293 cells transfected with pBabe-K-Ras^G12V or pBabe control vector were treated with or without SB-431542 (SB4) (inhibitor of TGF-β receptor 1, 10 μM) or SIS3 (inhibitor of SMAD3, 2 μM) at 37° C. for 24 h. Levels of S1PR3 were quantitated by qPCR. **, p<0.01, n=3, Student's t test.
as §1

S1PR1 = biological target: T1, S1PR1 (Homo sapiens, UniProt P21453); experiment: S1P-stimulated ERK1/2 activation in CHO cells transduced with S1PR1 (Western blot p-ERK); format: cell-based; details: TY-52156 10 μM, 10 min, then S1P 200 nM
T1 construct: expressed in transfected cells; host or cells: CHO cells, adenoviral transduction
T1 sequence (P21453 whole entry, species assumed): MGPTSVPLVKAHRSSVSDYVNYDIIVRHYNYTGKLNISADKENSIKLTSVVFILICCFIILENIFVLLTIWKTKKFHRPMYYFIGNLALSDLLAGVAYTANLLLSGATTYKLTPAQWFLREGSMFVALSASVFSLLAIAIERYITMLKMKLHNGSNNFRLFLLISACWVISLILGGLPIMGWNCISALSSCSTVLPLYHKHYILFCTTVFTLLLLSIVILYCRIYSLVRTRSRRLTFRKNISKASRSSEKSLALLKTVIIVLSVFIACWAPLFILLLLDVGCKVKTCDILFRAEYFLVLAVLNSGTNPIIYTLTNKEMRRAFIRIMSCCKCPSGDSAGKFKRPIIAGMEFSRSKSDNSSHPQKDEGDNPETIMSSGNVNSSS
Protocol: (§2) FIGS. 7A-7E. Inhibition of S1PR3 diminishes lung carcinoma growth. (7A), C57BL/6 mice were subcutaneously inoculated with LLC cells (1×10^6 cells). 1 week later, mice were intraperitoneally administered with VPC23019 (1.5 mg/kg of body weight) or control vehicle every 3 days. (7B), S1PR1 and S1PR3 levels in Lewis lung carcinoma cells. -ve, PCR reactions were performed without cDNA. **, p<0.01, n=6, ANOVA. (7C), CHO cells were transduced with adenoviral particles carrying S1PR1, S1PR2, S1PR3, or pcDNA control vector. Cells were serum-starved for 24 h. […] ERK1/2 activation (p-ERK) was measured by Western blotting analysis. (7D), C57BL/6 mice were subcutaneously inoculated with LLC cells (1×10^6 cells). […] (7E), tumor weights were measured 24 days after implantation. **, p<0.01, n=6, ANOVA.
(§3) Western Blotting Analysis. Protein extraction and Western blotting were performed as described (11). Briefly, cells were collected in ice-cold PBS using cell scrapers followed by centrifugation (500×g, 5 min). […] After centrifugation at 15,000×g for 20 min, supernatant was collected and protein concentration was measured using a bicinchoninic acid protein assay kit with BSA as standard. […]

[3] = test system: human lung adenocarcinoma cells exhibiting K-Ras G12D mutation; experiment: Proliferation and colony formation of cultured lung adenocarcinoma cells; format: cell-based
lung adenocarcinoma = experiment: Lung adenocarcinoma in LSL-KRas G12D mouse model (Ad-Cre); format: in vivo; details: Ad-Cre injected mice; 10 mg/kg i.p. every two days; lungs analyzed 2 months later
Protocol: FIGS. 8A-AD. […] Mice were injected with or without Ad-Cre. Lungs were analyzed for adenocarcinoma 2 months later. (8A) LSL-KRas^G12D injected with Ad-Cre. (8B) LSL-KRas^G12D injected with Ad-Cre. […] (8C) LSL-KRas^G12D mice injected with Ad-Ctrl. (8D) wild-type C57BL/6 mice injected with Ad-Cre. Arrows, lung adenocarcinomas. Scale bar=[…].

S1PR2 = biological target: T2, S1PR2 (Homo sapiens, UniProt O95136); experiment: S1P-stimulated ERK1/2 activation in CHO cells transduced with S1PR2 (Western blot p-ERK); format: cell-based; details: TY-52156 10 μM, 10 min, then S1P 200 nM
T2 construct: expressed in transfected cells; host or cells: CHO cells, adenoviral transduction
T2 sequence (O95136 whole entry, species assumed): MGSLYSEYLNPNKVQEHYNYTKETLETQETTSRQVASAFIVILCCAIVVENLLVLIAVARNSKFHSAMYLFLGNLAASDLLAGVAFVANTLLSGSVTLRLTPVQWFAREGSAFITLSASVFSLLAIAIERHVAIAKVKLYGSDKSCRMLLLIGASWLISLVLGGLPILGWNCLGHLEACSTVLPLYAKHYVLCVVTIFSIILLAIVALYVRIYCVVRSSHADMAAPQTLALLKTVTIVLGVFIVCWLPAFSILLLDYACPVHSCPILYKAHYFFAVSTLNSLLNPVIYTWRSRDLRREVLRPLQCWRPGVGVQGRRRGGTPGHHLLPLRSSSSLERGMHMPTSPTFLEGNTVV
Protocol: as §2, §3

[4] = test system: Lewis lung carcinoma cells; experiment: Subcutaneous Lewis lung carcinoma tumor growth in C57BL/6 mice; format: in vivo, mouse; details: s.c. LLC cells
Protocol: as §2
Tumor Growth and Lung Colonization in Mice. All animal procedures were performed according to the National Institutes of Health and institutional guidelines, and were approved by the Wayne State University Animal Use and Care Committee. For subcutaneous implantation, lung carcinoma cells were adjusted to 1×10^7 cells/ml. Mice were injected with 0.1 ml of cell suspension into the subcutaneous dorsa in the proximal midline. […] Tumor volume was measured in two dimensions using calipers, and volume was determined using the formula width 2×length×0.52 (49). […]

CCCCCCCCCCCC1N[C@H](C(=O)O)CS1 (some centres unmarked) [CAY10444]
TGF-β-induced IL-6 expression (IL-6 expression): significantly diminished

NC(=O)c1ccc(-c2nc(-c3ccc4c(c3)OCO4)c(-c3ccccn3)[nH]2)cc1 [SB-431542]
TGF-β-stimulated S1PR3 up-regulation (S1PR3 expression [1]): abrogated
S1PR3 up-regulation in K-Ras G12V-expressing cells (S1PR3 expression [2]): abrogated

COc1cc2c(cc1OC)CN(C(=O)/C=C/c1c(-c3ccccc3)n(C)c3ncccc13)CC2 [SIS3]
TGF-β-stimulated S1PR3 up-regulation (S1PR3 expression [1]): abrogated
S1PR3 up-regulation in K-Ras G12V-expressing cells (S1PR3 expression [2]): abrogated

CC(C)(C)C(=O)/C(=N/c1ccc(Cl)cc1)NNc1ccc(Cl)cc1 [TY-52156, 1-(4-chlorophenylhydrazono)-1-(4-chlorophenylamino)-3,3-dimethyl-2-butanone]
S1P/S1PR1-stimulated ERK1/2 activation (S1PR1): had no effect
proliferation and colony formation [3]: effective in inhibiting
lung adenocarcinoma in LSL-KRas G12D mouse model (lung adenocarcinoma): significantly inhibits
S1P/S1PR2-stimulated ERK1/2 activation (S1PR2): had no effect
growth of Lewis lung carcinoma (tumor volume, tumor weight 24 days after implantation) ([4]; 10 mg/kg intraperitoneally every 2 days from 1 week after inoculation, 10 mg/kg): significantly suppressed; also recorded: significantly diminished

CCCCCCCCc1cccc(NC(=O)[C@H](N)COP(=O)(O)O)c1 [VPC23019]
tumor growth ([4]; 1.5 mg/kg intraperitoneally every 3 days from 1 week after inoculation, 1.5 mg/kg): significantly inhibited; also recorded: significantly diminished
